Reference: patent US6344451B1, “Pyrrolobenzodiazepine carboxyamide vasopressin agonists” (American Home Products, priority 1999, dated 2002)

Molecular target: T1, Vasopressin V2 (Rattus norvegicus, UniProt Q00788)
T1 construct: Male or female normotensive Sprague-Dawley rats; from tissue; host or cells: whole living Sprague-Dawley rat (V2 receptors of the kidney collecting ducts)
Assay: Vasopressin V2 agonist effects of test compounds in normal conscious water-loaded rats
Type: in vivo
Details: oral dose of 10 mg/Kg, urine collected for four hours, Sprague-Dawley (CD) rats; for Changes in Urinary Osmolality: osmolality changes expressed as percent of control; for Urine Volume (% decrease): percent decrease in urine volume vs. control
Description: Vasopressin V2 Agonist Effects of Test Compounds in Normal Conscious Water-Loaded Rats:
Male or female normotensive Sprague-Dawley rats (Charles River Laboratories, Inc., Kingston, N.Y.) of 350-500 g body weight were supplied with standard rodent diet (Purina Rodent Lab. Chow 5001) and water ad libitum. On the day of test, rats were placed individually into metabolic cages equipped with devices to separate the feces from the urine and containers for collection of urine. A test compound or a reference agent was given at an oral dose of 10 mg/Kg in a volume of 10 mL/Kg. The vehicle used was 20% dimethylsulfoxide (DMSO) in 2.5% preboiled corn starch. Thirty minutes after dosing the test compound, rats were gavaged with water at 30 mL/Kg into the stomach using a feeding needle. During the test, rats were not provided with water or food. Urine was collected for four hours after dosing of the test compound. At the end of four hours, urine volume was measured. Urinary osmolality was determined using a Fiske One-Ten Osmometer (Fiske Associates, Norwood, Mass., 02062) or an Advanced CRYOMATIC Osmometer, Model 3C2 (Advanced Instruments, Norwood, Mass.). Determinations of Na^+, K^+ and Cl^− ion were carried out using ion specific electrodes in a Beckman SYNCHRON EL-ISE Electrolyte System analyzer. The urinary osmolality should increase proportionally. In the screening test, two rats were used for each compound. If the difference in the urine volume of the two rats was greater than 50%, a third rat was used.

T1 sequence (Q00788 whole entry): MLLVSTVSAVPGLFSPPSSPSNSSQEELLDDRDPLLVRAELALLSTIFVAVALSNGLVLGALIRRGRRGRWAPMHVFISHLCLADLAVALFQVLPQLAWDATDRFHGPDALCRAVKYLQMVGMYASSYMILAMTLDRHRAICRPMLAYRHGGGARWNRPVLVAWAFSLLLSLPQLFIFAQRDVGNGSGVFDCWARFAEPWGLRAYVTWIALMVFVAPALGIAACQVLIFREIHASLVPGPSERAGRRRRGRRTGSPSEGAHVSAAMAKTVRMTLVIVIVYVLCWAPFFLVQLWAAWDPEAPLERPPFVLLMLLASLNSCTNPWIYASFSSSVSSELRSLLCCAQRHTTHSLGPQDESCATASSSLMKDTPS

SMILES	Changes in Urinary Osmolality	Urine Volume (% decrease)
Cn1ccc2cc(C(=O)N3Cc4cccn4Cc4ccccc43)ccc21 [Example 1, (5H-10,11-Dihydro-pyrrolo [2,1-c][1,4]benzodiazepin-10-yl)-(1-methyl-1H-indol-5-yl)-methanone]	174% of control	66
O=C(c1ccc2c(c1)OCO2)N1Cc2cccn2Cc2ccccc21 [Example 2, Benzo[1,3]dioxol-5-yl-(5H-10,11-dihydro-pyrrolo [2,1-c][1,4]benzodiazepin-10-yl)-methanone]	41% of control	23
O=C(c1ccc2c(c1)CCO2)N1Cc2cccn2Cc2ccccc21 [Example 3, (2,3-Dihvdro-benzofuran-5-yl)-(5H-10.11-dihydro-pyrrolo [2,1-c][1,4]benzodiazepin-10-yl)-methanone]	10% of control	32
O=C(c1ccc2ncsc2c1)N1Cc2cccn2Cc2ccccc21 [Example 4, (Benzothiazol-6-yl)-(5H-10,11-dihydro-pyrrolo[2,1-c][1,4]benzodiazepin-10-yl)-methanone]	3% of control	19
